Results: PMC8067507, “Aryl Urea Based Scaffolds for Multitarget Drug Discovery in Anticancer Immunotherapies” (Pharmaceuticals, 2021)

Tests used:
[1] = system: HMEC-1 cells; experiment: Tube formation inhibition assay; type: cell-based, human; details: HMEC-1 on Matrigel, 20 h incubation; average of three experiments
Experimental: (§1) HT-29, MCF-7, HeLa, A549 and HEK-293 cell lines were maintained in Dulbecco’s modified Eagle’s medium (DMEM) containing glucose (1 g/L), glutamine (2 mM), penicillin (50 μg/mL), streptomycin (50 μg/mL), and amphotericin B (1.25 μg/mL), supplemented with 10% FBS. HMEC-1 cell line was maintained in Dulbecco’s modified Eagle’s medium (DMEM)/low glucose containing glutamine (2 mM), penicillin (50 μg/mL), streptomycin (50 μg/mL), and amphotericin B (1.25 μg/mL), supplemented with 10% FBS. For the development of tube formation assays in Matrigel, HMEC-1 cells were cultured in EGM-2MV Medium supplemented with EGM-2MV SingleQuots.
Wells of an IBIDI μ-slide angiogenesis (IBIDI, Martinsried, Germany) were coated with 12 μL of Matrigel® (10 mg/mL, BD Biosciences) at 4 °C. After gelatinization at 37 °C for 30 min, HMEC-1 cells were seeded at 2 × 10^4 cells/well in 35 μL of culture medium on top of the Matrigel and were incubated 30 min at 37 °C while are attached. Then, compounds were added dissolved in 35 μL of culture medium and after 20 h of incubation at 37 °C, tube destruction was evaluated.

[2] = system: all tested cell lines (HT-29, MCF-7, HeLa, A549, HMEC-1, HEK-293); set-up: method as in PMID 30878834; details: chlorophenyl derivatives of the previous study; read-out: IC50 values (range over cell lines); cited from earlier work
[3] = system: HEK-293 (human embryonic kidney cells); experiment: Cell proliferation assay (MTT); type: cell-based; details: HEK293, 48 h, 2 days incubation, average ± SD of three experiments
From the text: (§2) The ability of Ureas 13–33 to inhibit cell proliferation was established by means of their IC50 values towards the human tumor cell lines HT-29 (colon adenocarcinoma), MCF-7 (breast adenocarcinoma), HeLa (epithelioid cervix carcinoma) and A549 (pulmonary adenocarcinoma), as well as towards the endothelial cell line HMEC-1 (human microvascular endothelial cells) and the non-tumor cell line HEK-293 (human embryonic kidney cells).
as §1
(§3) In 96-well plates, 3 × 10^3 (HeLa, A549, HMEC-1, HEK-293) or 5 × 10^3 (HT-29, MCF-7) cells per well were incubated with serial dilutions of the tested compounds in a total volume of 100 μL of their respective growth media. The 3-(4,5-dimethylthiazol-2-yl)-2,5-diphenyltetrazolium bromide (MTT; Sigma Chemical Co.) dye reduction assay in 96-well microplates was used. After 2 days of incubation (37 °C, 5% CO2 in a humid atmosphere), 10 μL of MTT (5 mg/mL in phosphate-buffered saline, PBS) was added to each well, and the plate was incubated for a further 3 h (37 °C). After that, the supernatant was discarded and replaced by 100 µL of DMSO to dissolve formazan crystals. The absorbance was then read at 540 nm by spectrophotometry. For all concentrations of compound, cell viability was expressed as the percentage of the ratio between the mean absorbance of treated cells and the mean absorbance of untreated cells. Three independent experiments were performed, and the IC50 values (i.e., concentration half inhibiting cell proliferation) were graphically determined using GraphPad Prism 4 software.

[4] = system: HT-29 (colon adenocarcinoma); experiment: Cell proliferation assay (MTT); type: cell-based; details: Homo sapiens, HT-29, 48 h, 2 days incubation, average ± SD of three experiments
From the text: as §2, §1, §3

[5] = system: A549 (pulmonary adenocarcinoma); experiment: Cell proliferation assay (MTT); type: cell-based; details: Homo sapiens, A549, 48 h, 2 days incubation, average ± SD of three experiments
From the text: as §2, §1, §3

[6] = system: MCF-7 (breast adenocarcinoma); experiment: Cell proliferation assay (MTT); type: cell-based; details: Homo sapiens, MCF7, 48 h, 2 days incubation, average ± SD of three experiments
From the text: as §2, §1, §3

[7] = system: HMEC-1 (human microvascular endothelial cells); experiment: Cell proliferation assay (MTT); type: cell-based; details: HMEC-1, 48 h, 2 days incubation, average ± SD of three experiments
From the text: as §2, §1, §3

[8] = system: HeLa (epithelioid cervix carcinoma); experiment: Cell proliferation assay (MTT); type: cell-based; details: Homo sapiens, 48 h, 2 days incubation, average ± SD of three experiments
From the text: as §2, §1, §3

[9] = system: c-Myc; experiment: c-Myc quantification by flow cytometry in HT-29; type: cell-based, human; details: HT-29, 10 μM, 24 h, referred to control (DMSO)
Experimental: (§4) We evaluated the effect of the selected compounds on PD-L1 and on c-Myc proteins by flow cytometry after 24 h treatment at 10 μM concentration of compounds. Both, PD-L1 and c-Myc were relatively determined using DMSO treated cells as a negative control and BMS-8 as a positive one.
(§5) For the detection of total PD-L1 and c-Myc, cancer cells were seeded (3 × 10^5 cells/well) in 6-well plates and were incubated with the corresponding compounds for 24 h. Then they were collected, fixed, treated with 0.5% Triton^TM X-100 and stained with Alexa Fluor® 647 Rabbit monoclonal Anti-PD-L1 (ab215251) and FITC Rabbit monoclonal anti-c-Myc (ab223913).
(§6) We also checked results performing ELISA tests. For ELISA tests, lysates were collected, protein quantification was carried out by Bradford test and, then, PD-L1 and c-Myc were quantified using Human PD-L1 ELISA Kit 28-8 (ab214565) and c-Myc (Total) Human ELISA Kit (KHO2041), respectively, according to the manufacturer’s instructions.

[10] = target: T1, VEGFR-2 (Homo sapiens, UniProt P35968); experiment: VEGFR-2 quantification by flow cytometry in HT-29; type: cell-based; set-up: Both membrane and total VEGFR-2 were relatively determined using dimethyl sulfoxide (DMSO) treated cells as a negative control; endogenous in cells; host or cells: HT-29 (colon adenocarcinoma) and HMEC-1 (human microvascular endothelial cells); details: 24 h; for Membrane VEGFR-2 (%) / Total VEGFR-2 (%): HT-29, 10 µM, relative to DMSO control
T1 sequence (P35968 20-1356): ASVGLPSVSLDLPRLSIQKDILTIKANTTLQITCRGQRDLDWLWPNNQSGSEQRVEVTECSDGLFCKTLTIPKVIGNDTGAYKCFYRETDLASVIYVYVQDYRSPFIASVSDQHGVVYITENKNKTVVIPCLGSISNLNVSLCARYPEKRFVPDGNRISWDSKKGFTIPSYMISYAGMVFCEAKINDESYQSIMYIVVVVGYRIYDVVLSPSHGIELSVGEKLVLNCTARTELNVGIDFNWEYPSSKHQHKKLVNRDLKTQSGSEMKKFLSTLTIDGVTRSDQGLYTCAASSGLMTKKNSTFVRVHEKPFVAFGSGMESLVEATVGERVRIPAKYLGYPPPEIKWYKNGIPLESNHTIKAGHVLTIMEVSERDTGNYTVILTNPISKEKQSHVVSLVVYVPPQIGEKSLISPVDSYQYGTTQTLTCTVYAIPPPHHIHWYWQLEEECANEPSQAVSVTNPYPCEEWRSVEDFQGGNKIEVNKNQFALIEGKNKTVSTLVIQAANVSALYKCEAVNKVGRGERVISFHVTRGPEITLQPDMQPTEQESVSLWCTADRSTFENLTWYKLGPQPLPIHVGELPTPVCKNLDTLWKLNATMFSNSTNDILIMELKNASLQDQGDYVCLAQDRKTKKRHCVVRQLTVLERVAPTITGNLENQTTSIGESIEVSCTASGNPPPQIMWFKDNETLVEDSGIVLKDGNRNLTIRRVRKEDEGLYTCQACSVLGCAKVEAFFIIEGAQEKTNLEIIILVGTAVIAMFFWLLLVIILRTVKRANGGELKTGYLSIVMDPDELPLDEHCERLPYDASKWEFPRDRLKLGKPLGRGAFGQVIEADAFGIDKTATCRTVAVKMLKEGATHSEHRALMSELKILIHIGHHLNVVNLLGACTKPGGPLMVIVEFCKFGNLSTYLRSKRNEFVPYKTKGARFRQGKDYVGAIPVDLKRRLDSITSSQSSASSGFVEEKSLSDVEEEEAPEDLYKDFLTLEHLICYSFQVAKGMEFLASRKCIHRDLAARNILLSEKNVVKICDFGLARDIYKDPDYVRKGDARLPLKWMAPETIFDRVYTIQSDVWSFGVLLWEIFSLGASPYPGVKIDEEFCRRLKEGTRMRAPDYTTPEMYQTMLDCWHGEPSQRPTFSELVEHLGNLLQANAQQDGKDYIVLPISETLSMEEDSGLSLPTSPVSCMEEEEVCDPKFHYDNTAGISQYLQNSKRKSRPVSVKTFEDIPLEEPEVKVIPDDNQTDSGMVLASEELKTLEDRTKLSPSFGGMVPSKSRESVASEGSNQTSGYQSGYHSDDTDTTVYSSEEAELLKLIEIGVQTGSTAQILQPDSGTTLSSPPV
Experimental: (§7) We performed the study on both a HT-29 cancer cell line and a human microvessel endothelial cell line (HMEC-1). […] The effect of these selected derivatives on VEGFR-2, on HT-29 tumor cell line and on human microvessel endothelial cells (HMEC) was determined by flow cytometry technique. […] For these assays, cells were incubated for 24 h in the presence of the corresponding compounds at 10 µM concentration.

[11] = target: T2, PD-L1 (Homo sapiens, UniProt Q9NZQ7); experiment: PD-L1 quantification by flow cytometry in A-549; type: cell-based; set-up: endogenous in cells; host or cells: A-549 cancer cells; details: A-549, 10 μM, 24 h, referred to control (DMSO)
T2 sequence (Q9NZQ7 19-290): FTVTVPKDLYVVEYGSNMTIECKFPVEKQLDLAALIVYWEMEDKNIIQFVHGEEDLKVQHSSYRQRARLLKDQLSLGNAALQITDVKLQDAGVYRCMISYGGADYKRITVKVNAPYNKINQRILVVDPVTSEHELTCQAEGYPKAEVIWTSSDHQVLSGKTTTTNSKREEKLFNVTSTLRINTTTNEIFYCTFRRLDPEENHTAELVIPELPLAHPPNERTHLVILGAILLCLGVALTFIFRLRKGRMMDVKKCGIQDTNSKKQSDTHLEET
Experimental: as §4, §5, §6

[12] = system: c-Myc; experiment: c-Myc quantification by flow cytometry in A-549; type: cell-based, human; details: A-549, 10 μM, 24 h, referred to control (DMSO)
Experimental: as §4, §5, §6

[13] = target: T2, PD-L1; experiment: PD-L1 quantification by flow cytometry in HT-29; type: cell-based; details: HT-29, 10 μM, 24 h, referred to control (DMSO)
Experimental: as §4, §5, §6

[14] = system: HT-29 cells; experiment: Cell proliferation evaluation in co-cultures: HT-29 with Jurkat T cells; type: cell-based, human; details: IFN-γ stimulated HT-29 co-cultured with Jurkat T cells, 10 µM, 24 h; five experiments
Experimental: We also studied the effect of Compounds 16, 23, 26 and 33 on tumor cell proliferation in the presence of PD-1 expressing Jurkat T-cells. For this assay, first interferon γ stimulated HT-29 cells were treated for 24 h with the selected compounds at 10 µM in presence of Jurkat T cells. Then, living cells were counted using trypan blue and a Neubauer chamber and by flow cytometry.
In 12-well plates, 10^5 HT-29 cells per well were seeded and incubated for 24 h with cell culture medium supplemented with IFN-γ (10 ng/mL; human, Invitrogen®) then medium was change by one containing 4 × 10^5 Jurkat T cells per well and 10 μM of the corresponding compound or DMSO for the control. After 24 h of incubation, supernatants were collected to determine Jurkat T cell living cells and, on the other hand, HT-29 cells were collected with trypsin. Both types of suspension cells were counted with the Neubauer chamber and trypan blue and also by flow cytometry.

[15] = target: T1, VEGFR-2; experiment: VEGFR-2 quantification by flow cytometry in HMEC-1; type: cell-based; set-up: Both membrane and total VEGFR-2 were relatively determined using dimethyl sulfoxide (DMSO) treated cells as a negative control; endogenous in cells; host or cells: HMEC-1 (human microvascular endothelial cells); details: 10 µM, 24 h, relative to DMSO control
Experimental: as §7

Row | Structure (SMILES) | Minimum Active Conc. (inhibition of tube formation) [1] | IC50 [2] | IC50 [3] | IC50 [4] | IC50 [5] | IC50 [6] | IC50 [7] | IC50 [8] | c-Myc (%) relative expression [9] | inhibition at 10 µM ([10]; 10 µM, statement for HT-29 and HMEC-1, read-out: inhibition of both membrane and total VEGFR-2) | Membrane VEGFR-2 (%) [10] | Total VEGFR-2 (%) [10] | PD-L1 (%) relative expression [11] | c-Myc (%) relative expression [12] | PD-L1 (%) relative expression [13] | Living HT-29 cell proliferation (%) [14] | Membrane VEGFR-2 (%) [15] | Total VEGFR-2 (%) [15] | melting point
1 | CCN(CC)CCNC(=O)c1c(C)[nH]c(/C=C2\C(=O)Nc3ccc(F)cc32)c1C [Sunitinib, sunitinib, reference compound] | 3 µM |  |  |  |  |  |  |  |  |  |  |  |  |  |  |  |  |  | 
2 | COc1ccc(/C=C/c2cccc(NC(=O)Nc3cccc(Cl)c3)c2)cc1 [Compound 5] |  | 2000 to 11000 nM |  |  |  |  |  |  |  |  |  |  |  |  |  |  |  |  | 
3 | CNC(=O)c1cc(Oc2ccc(NC(=O)Nc3ccc(Cl)c(C(F)(F)F)c3)cc2)ccn1 [Sorafenib, sorafenib, reference compound] | 10 µM |  | 5 ± 0.7 µM | 17 ± 4 µM | 27 ± 2 µM | 14 ± 4 µM | 34000 ± 3000 nM | 6.1 ± 0.4 µM |  |  |  |  |  |  |  |  |  |  | 
4 | COc1ccc(/C=C/c2cccc(NC(=O)Nc3ccc(Br)cc3)c2)cc1 [Compound 23] | 1 µM |  | 0.7 ± 0.3 µM | 0.4 ± 0.3 µM | 3 ± 0.4 µM | 0.3 ± 0.2 µM | 1800 ± 300 nM | 3.1 ± 0.1 µM | 49 ± 8% | > 50% | 36 ± 9% | 39 ± 8% | 16 ± 6% | 34 ± 4% | 18 ± 5% | 64% | 39 ± 5% | 74 ± 8% | 
5 | COc1ccc(/C=C/c2cccc(NC(=O)Nc3ccc(Cl)cc3)c2)cc1 [Compound 6] |  | 400 to 1800 nM |  |  |  |  |  |  |  |  |  |  |  |  |  |  |  |  | 
6 | COc1ccc(CCc2cccc(NC(=O)Nc3ccc(OC)cc3)c2)cc1 [Compound 33] |  |  | 0.9 ± 0.07 µM | 4.4 ± 0.8 µM | 8 ± 3 µM | 1.5 ± 0.6 µM | 900 ± 30 nM | 1.4 ± 0.5 µM | 70 ± 10% |  | 68 ± 13% | 100 ± 10% | 42 ± 11% | 83 ± 12% | 38 ± 13% | 62% | 66 ± 5% | 93 ± 8% | 
7 | COc1ccc(/C=C\c2cccc(NC(=O)Nc3cccc(Br)c3)c2)cc1 [Compound 15] |  |  | 23 ± 2 µM | 25 ± 2 µM | 38 ± 6 µM | 28 ± 5 µM | 24000 ± 4000 nM | 30 ± 7 µM |  |  |  |  |  |  |  |  |  |  | 174 °C
8 | COc1ccc(/C=C/c2cccc(NC(=O)Nc3ccc(OC)cc3)c2)cc1 [Compound 26] |  |  | 1.4 ± 0.6 µM | 0.2 ± 0.2 µM | 13 ± 3 µM | 0.7 ± 0.3 µM | 1900 ± 600 nM | 4 ± 1 µM | 57 ± 9% |  | 68 ± 9% | 95 ± 9% | 50 ± 3% | 63 ± 7% | 33 ± 10% | 62% | 65 ± 9% | 83 ± 7% | 
9 | Cc1c(COc2ccc(CN3CCCCC3C(=O)O)cc2Br)cccc1-c1ccccc1 (centres unmarked) [BMS-8, reference compound] |  |  | 60 ± 10 µM | 19 ± 2 µM | 6 ± 1 µM | 20 ± 3 µM |  | > 100 µM | 99 ± 4% |  |  |  | 68 ± 5% | 60 ± 7% | 62 ± 3% | 45% |  |  | 
